Measured values taken from US9624170B2, “4-(piperrazin-1-yl)-pyrrolidin-2-one compounds as monoacylglycerol lipase (MAGL) inhibitors” (TAKEDA PHARMACEUTICAL COMPANY LIMITED, priority 2013, dated 2017).

Target: T1, human MAGL (His-hMAGL) (Homo sapiens, UniProt Q99685)
T1 construct: made in house; host or cells: Escherichia coli BL21(DE3)
T1 sequence (Q99685 1-303): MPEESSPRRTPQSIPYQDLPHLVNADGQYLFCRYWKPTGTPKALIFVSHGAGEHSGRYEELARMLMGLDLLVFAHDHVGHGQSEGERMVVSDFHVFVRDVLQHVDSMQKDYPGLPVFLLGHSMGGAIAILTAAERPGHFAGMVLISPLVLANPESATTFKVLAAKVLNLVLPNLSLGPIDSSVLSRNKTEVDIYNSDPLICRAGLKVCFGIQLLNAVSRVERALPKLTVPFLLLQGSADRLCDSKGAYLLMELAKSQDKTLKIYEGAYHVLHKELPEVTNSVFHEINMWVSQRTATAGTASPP
Assay: Measurement of MAGL inhibitory activity by mass spectrometry
Assay type: biochemical
Conditions: MAGL inhibitory rate, test compound 10 μM, His-hMAGL, substrate 2-arachidonylglycerol, RapidFire-mass spectrometry
Summary of the method: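 His-tagged human MAGL was reacted with 150 μM 2-arachidonylglycerol substrate (stock, added by 5 μL) for 10 min at room temperature, then stopped with formic acid. Arachidonic acid product was quantified by RapidFire–triple-quadrupole MS in negative SRM mode, corrected by arachidonic acid-d8, and converted to percent inhibition.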

Row | SMILES | inhibition at 10 µM [%]
1 | O=C(c1nccs1)N1CCN(C2CC(=O)N(c3cccc(-c4c(F)c(F)c(F)c(F)c4F)c3)C2)CC1 (stereo not drawn) [Example 330, 1-(2′,3′,4′,5′,6′-pentafluorobiphenyl-3-yl)-4-(4-(1,3-thiazol-2-ylcarbonyl)piperazin-1-yl)pyrrolidin-2-one] | 101
2 | O=C(c1nccs1)N1CCN(C2CC(=O)N(c3cccc(-c4cnc5ccccn45)c3)C2)CC1 (stereo not drawn) [Example 331, 1-(3-(imidazo[1,2-a]pyridin-3-yl)phenyl)-4-(4-(1,3-thiazol-2-ylcarbonyl)piperazin-1-yl)pyrrolidin-2-one] | 101
3 | O=C(c1nccs1)N1CCN(C2CC(=O)N(c3cccc(-c4n[nH]c5ccccc45)c3)C2)CC1 (stereo not drawn) [Example 332, 1-(3-(1H-indazol-3-yl)phenyl)-4-(4-(1,3-thiazol-2-ylcarbonyl)piperazin-1-yl)pyrrolidin-2-one] | 100
4 | Cn1ccnc1-c1cccc(N2CC(N3CCN(C(=O)c4nccs4)CC3)CC2=O)c1 (stereo not drawn) [Example 333, 1-(3-(1-methyl-1H-imidazol-2-yl)phenyl)-4-(4-(1,3-thiazol-2-ylcarbonyl)piperazin-1-yl)pyrrolidin-2-one] | 83
5 | O=C(c1nccs1)N1CCN(C2CC(=O)N(c3cccc(-c4nsc5ccccc45)c3)C2)CC1 (stereo not drawn) [Example 334, 1-(3-(1,2-benzothiazol-3-yl)phenyl)-4-(4-(1,3-thiazol-2-ylcarbonyl)piperazin-1-yl)pyrrolidin-2-one] | 103
6 | Cc1nc2ccccn2c1-c1cccc(N2CC(N3CCN(C(=O)c4nccs4)CC3)CC2=O)c1 (stereo not drawn) [Example 335, 1-(3-(2-methylimidazo[1,2-a]pyridin-3-yl)phenyl)-4-(4-(1,3-thiazol-2-ylcarbonyl)piperazin-1-yl)pyrrolidin-2-one] | 101
7 | N#Cc1cccc(F)c1-c1cccc(N2CC(N3CCN(C(=O)c4nccs4)CC3)CC2=O)c1 (stereo not drawn) [Example 336, 6-fluoro-3′-(2-oxo-4-(4-(1,3-thiazol-2-ylcarbonyl)piperazin-1-yl)pyrrolidin-1-yl)biphenyl-2-carbonitrile] | 100
8 | O=C(c1nccs1)N1CCN(C2CC(=O)N(c3cccc(-c4c[nH]c5ncccc45)c3)C2)CC1 (stereo not drawn) [Example 337, 1-(3-(1H-pyrrolo[2,3-b]pyridin-3-yl)phenyl)-4-(4-(1,3-thiazol-2-ylcarbonyl)piperazin-1-yl)pyrrolidin-2-one] | 99
9 | O=C(c1nccs1)N1CCN(C2CC(=O)N(c3cccc(-c4cccc5ccnn45)c3)C2)CC1 (stereo not drawn) [Example 338, 1-(3-(pyrazolo[1,5-a]pyridin-7-yl)phenyl)-4-(4-(1,3-thiazol-2-ylcarbonyl)piperazin-1-yl)pyrrolidin-2-one] | 98
10 | COc1nccc(C)c1-c1cccc(N2CC(N3CCN(C(=O)c4nccs4)CC3)CC2=O)c1 (stereo not drawn) [Example 339, 1-(3-(2-methoxy-4-methylpyridin-3-yl)phenyl)-4-(4-(1,3-thiazol-2-ylcarbonyl)piperazin-1-yl)pyrrolidin-2-one] | 100
11 | O=C(c1nccs1)N1CCN(C2CC(=O)N(c3cccc(-c4cccc5nccn45)c3)C2)CC1 (stereo not drawn) [Example 340, 1-(3-(imidazo[1,2-a]pyridin-5-yl)phenyl)-4-(4-(1,3-thiazol-2-ylcarbonyl)piperazin-1-yl)pyrrolidin-2-one] | 99
12 | O=C(c1nccs1)N1CCN(C2CC(=O)N(c3cccc(-c4ccsc4C(F)(F)F)c3)C2)CC1 (stereo not drawn) [Example 341, 4-(4-(1,3-thiazol-2-ylcarbonyl)piperazin-1-yl)-1-(3-(2-(trifluoromethyl)-3-thienyl)phenyl)pyrrolidin-2-one] | 101
13 | O=C(c1nccs1)N1CCN(C2CC(=O)N(c3cccc(-c4cccn5ccnc45)c3)C2)CC1 (stereo not drawn) [Example 342, 1-(3-(imidazo[1,2-a]pyridin-8-yl)phenyl)-4-(4-(1,3-thiazol-2-ylcarbonyl)piperazin-1-yl)pyrrolidin-2-one] | 100
14 | COc1nccc2[nH]cc(-c3cccc(N4CC(N5CCN(C(=O)c6nccs6)CC5)CC4=O)c3)c12 (stereo not drawn) [Example 343, 1-(3-(4-methoxy-1H-pyrrolo[3,2-c]pyridin-3-yl)phenyl)-4-(4-(1,3-thiazol-2-ylcarbonyl)piperazin-1-yl)pyrrolidin-2-one] | 101
15 | O=C(c1nccs1)N1CCN(C2CC(=O)N(c3cccc(-c4c(F)cccc4Cl)c3)C2)CC1 (stereo not drawn) [Example 344, 1-(2′-chloro-6′-fluorobiphenyl-3-yl)-4-(4-(1,3-thiazol-2-ylcarbonyl)piperazin-1-yl)pyrrolidin-2-one] | 98
16 | Cc1cn2c(-c3cccc(N4CC(N5CCN(C(=O)c6nccs6)CC5)CC4=O)c3)cccc2n1 (stereo not drawn) [Example 345, 1-(3-(2-methylimidazo[1,2-a]pyridin-5-yl)phenyl)-4-(4-(1,3-thiazol-2-ylcarbonyl)piperazin-1-yl)pyrrolidin-2-one] | 97
17 | O=C(c1nccs1)N1CCN(C2CC(=O)N(c3cccc(-c4ccnc5sccc45)c3)C2)CC1 (stereo not drawn) [Example 346, 4-(4-(1,3-thiazol-2-ylcarbonyl)piperazin-1-yl)-1-(3-(thieno[2,3-b]pyridin-4-yl)phenyl)pyrrolidin-2-one] | 99
18 | O=C(c1nccs1)N1CCN(C2CC(=O)N(c3cccc(-c4csc5ncccc45)c3)C2)CC1 (stereo not drawn) [Example 347, 4-(4-(1,3-thiazol-2-ylcarbonyl)piperazin-1-yl)-1-(3-(thieno[2,3-b]pyridin-3-yl)phenyl)pyrrolidin-2-one] | 100
19 | O=C1Cc2c(-c3cccc(N4CC(N5CCN(C(=O)c6nccs6)CC5)CC4=O)c3)ccnc2N1 (stereo not drawn) [Example 348, 4-(3-(2-oxo-4-(4-(1,3-thiazol-2-ylcarbonyl)piperazin-1-yl)pyrrolidin-1-yl)phenyl)-1,3-dihydro-2H-pyrrolo[2,3-b]pyridin-2-one] | 99
20 | O=C(c1nccs1)N1CCN(C2CC(=O)N(c3cccc(-c4nc(C(F)(F)F)cs4)c3)C2)CC1 (stereo not drawn) [Example 349, 4-(4-(1,3-thiazol-2-ylcarbonyl)piperazin-1-yl)-1-(3-(4-(trifluoromethyl)-1,3-thiazol-2-yl)phenyl)pyrrolidin-2-one] | 98
21 | O=C(c1nccs1)N1CCN(C2CC(=O)N(c3cc(F)cc(-c4ccccc4Cl)c3)C2)CC1 (stereo not drawn) [Example 350, 1-(2′-chloro-5-fluorobiphenyl-3-yl)-4-(4-(1,3-thiazol-2-ylcarbonyl)piperazin-1-yl)pyrrolidin-2-one] | 104
22 | COc1c(-c2cccc(N3CC(N4CCN(C(=O)c5nccs5)CC4)CC3=O)c2)ccc2c1NC(=O)C2 (stereo not drawn) [Example 351, 7-Methoxy-6-(3-(2-oxo-4-(4-(1,3-thiazol-2-ylcarbonyl)piperazin-1-yl)pyrrolidin-1-yl)phenyl)-1,3-dihydro-2H-indol-2-one] | 100
23 | Cc1ccnc(C)c1-c1cccc(N2CC(N3CCN(C(=O)c4nccs4)CC3)CC2=O)c1 (stereo not drawn) [Example 352, 1-(3-(2,4-dimethylpyridin-3-yl)phenyl)-4-(4-(1,3-thiazol-2-ylcarbonyl)piperazin-1-yl)pyrrolidin-2-one] | 102
24 | O=C(c1nccs1)N1CCN(C2CC(=O)N(c3cc(-c4ccccc4F)c4[nH]ccc4c3)C2)CC1 (stereo not drawn) [Example 353, 1-(7-(2-Fluorophenyl)-1H-indol-5-yl)-4-(4-(1,3-thiazol-2-ylcarbonyl)piperazin-1-yl)pyrrolidin-2-one] | 101
